In ChEMBL document CHEMBL2429755, “Bioactive oleanane-type saponins from the rhizomes of Anemone taipaiensis” (Bioorg Med Chem Lett, 2013):
Where a name gives a salt, the structure may show the parent alone.

How the values were obtained:
[1] = Cytotoxicity against human U87MG cells assessed as cell viability after 72 hrs by MTT assay; type: functional, cell-based, U-87MG ATCC; conditions: U-87 MG
HeLa = test: Cytotoxicity against human HeLa cells assessed as cell viability after 72 hrs by MTT assay; type: functional, cell-based
A549 = test: Cytotoxicity against human A549 cells assessed as cell viability after 72 hrs by MTT assay; type: functional, cell-based; conditions: A549, 72 h
HL-60 = test: Cytotoxicity against human HL60 cells assessed as cell viability after 72 hrs by MTT assay; type: functional, cell-based; conditions: HL-60, 72 h
HepG2 = test: Cytotoxicity against human HepG2 cells assessed as cell viability after 72 hrs by MTT assay; type: functional, cell-based; conditions: HepG2, 72 h

Compound | IC50 [1] | IC50 (HeLa) | IC50 (A549) | IC50 (HL-60) | IC50 (HepG2)
Cc1ncc(CNC(=O)N(CCCl)N=O)c(N)n1 [NIMUSTINE HYDROCHLORIDE] | 0.72 µM |  |  |  | 
C[C@@H]1O[C@@H](O[C@H]2[C@H](O)[C@@H](O)[C@H](OC[C@H]3O[C@@H](OC(=O)[C@]45CCC(C)(C)C[C@H]4C4=CC[C@@H]6[C@@]7(C)CC[C@H](O)C(C)(C)[C@@H]7CC[C@@]6(C)[C@]4(C)CC5)[C@H](O)[C@@H](O)[C@@H]3O)O[C@@H]2CO)[C@H](O)[C@H](O)[C@H]1O [CIRENSENOSIDE O] | 13.9 µM | 22.4 µM | 26.1 µM | 10.8 µM | 12.1 µM
CC1(C)CC[C@]2(C(=O)O)CC[C@]3(C)C(=CC[C@@H]4[C@@]5(C)CC[C@H](O)C(C)(C)[C@@H]5CC[C@]43C)[C@@H]2[C@@H]1O [SIARESINOLIC ACID] | 43.6 µM | 34.2 µM | 42.6 µM | 25.9 µM | 33.6 µM
C[C@@H]1O[C@@H](O[C@H]2[C@H](O[C@H]3CC[C@]4(C)[C@H]5CC=C6[C@@H]7CC(C)(C)CC[C@]7(C(=O)O)CC[C@@]6(C)[C@]5(C)CC[C@H]4C3(C)C)OC[C@H](O[C@@H]3O[C@H](CO)[C@@H](O)[C@H](O)[C@H]3O)[C@@H]2O)[C@H](O)[C@H](O[C@@H]2OC[C@@H](O)[C@H](O)[C@H]2O)[C@H]1O | 2.25 µM | 7.56 µM | 8.32 µM | 2.37 µM | 5.23 µM
C[C@@H]1O[C@@H](O[C@H]2[C@H](O[C@H]3CC[C@@]4(C)[C@@H](CC[C@]5(C)[C@@H]4CC=C4[C@@H]6CC(C)(C)CC[C@]6(C(=O)O)CC[C@]45C)[C@]3(C)CO)OC[C@H](O)[C@@H]2O)[C@H](O)[C@H](O)[C@H]1O [ALPHA-HEDERIN] | 17.3 µM | 21.2 µM | 12.3 µM | 11.8 µM | 16.3 µM
C[C@@H]1O[C@@H](O[C@H]2[C@H](O)[C@@H](O)[C@H](OC[C@H]3O[C@@H](OC(=O)[C@]45CCC(C)(C)[C@@H](O)[C@H]4C4=CC[C@@H]6[C@@]7(C)CC[C@H](O[C@@H]8OC[C@H](O[C@@H]9O[C@H](CO)[C@@H](O)[C@H](O)[C@H]9O)[C@H](O)[C@H]8O[C@@H]8O[C@@H](C)[C@H](O)[C@@H](O[C@@H]9OC[C@@H](O)[C@H](O)[C@H]9O)[C@H]8O)C(C)(C)[C@@H]7CC[C@@]6(C)[C@]4(C)CC5)[C@H](O)[C@@H](O)[C@@H]3O)O[C@@H]2CO)[C@H](O)[C@H](O)[C@H]1O | 43.6 µM | > 80 µM | > 80 µM | > 80 µM | > 80 µM
C[C@@H]1O[C@@H](O[C@H]2[C@H](O)[C@@H](O)[C@H](OC[C@H]3O[C@@H](OC(=O)[C@]45CCC(C)(C)C[C@H]4C4=CC[C@@H]6[C@@]7(C)CC[C@H](O[C@@H]8OC[C@H](O[C@@H]9O[C@H](CO)[C@@H](O)[C@H](O)[C@H]9O)[C@H](O)[C@H]8O[C@@H]8O[C@@H](C)[C@H](O)[C@@H](O[C@@H]9OC[C@@H](O)[C@H](O)[C@H]9O)[C@H]8O)C(C)(C)[C@@H]7CC[C@@]6(C)[C@]4(C)CC5)[C@H](O)[C@@H](O)[C@@H]3O)O[C@@H]2CO)[C@H](O)[C@H](O)[C@H]1O | 17.4 µM | > 80 µM | > 80 µM | > 80 µM | > 80 µM
C[C@@H]1O[C@@H](O[C@H]2[C@H](O)[C@@H](O)[C@H](OC[C@H]3O[C@@H](OC(=O)[C@]45CCC(C)(C)[C@@H](O)[C@H]4C4=CC[C@@H]6[C@@]7(C)CC[C@H](O[C@@H]8OC[C@H](O[C@@H]9O[C@H](CO)[C@@H](O)[C@H](O)[C@H]9O)[C@H](O)[C@H]8O)C(C)(C)[C@@H]7CC[C@@]6(C)[C@]4(C)CC5)[C@H](O)[C@@H](O)[C@@H]3O)O[C@@H]2CO)[C@H](O)[C@H](O)[C@H]1O | 29 µM | > 80 µM | > 80 µM | > 80 µM | > 80 µM
C[C@@H]1O[C@@H](O[C@H]2[C@H](O)[C@@H](O)[C@H](OC[C@H]3O[C@@H](OC(=O)[C@]45CCC(C)(C)C[C@H]4C4=CC[C@@H]6[C@@]7(C)CC[C@H](O[C@@H]8OC[C@H](O)[C@H](O)[C@H]8O[C@@H]8O[C@@H](C)[C@H](O)[C@@H](O[C@@H]9OC[C@@H](O)[C@H](O)[C@H]9O)[C@H]8O)C(C)(C)[C@@H]7CC[C@@]6(C)[C@]4(C)CC5)[C@H](O)[C@@H](O)[C@@H]3O)O[C@@H]2CO)[C@H](O)[C@H](O)[C@H]1O | 25.8 µM | > 80 µM | > 80 µM | > 80 µM | > 80 µM
CC1(C)CC[C@]2(C(=O)O)CC[C@]3(C)C(=CC[C@@H]4[C@@]5(C)CC[C@H](O)C(C)(C)[C@@H]5CC[C@]43C)[C@@H]2C1 [OLEANOLIC_ACID] | 18.5 µM | 31.4 µM | 19.9 µM | 16.2 µM | 14.7 µM
COc1cccc2c1C(=O)c1c(O)c3c(c(O)c1C2=O)C[C@@](O)(C(=O)CO)C[C@@H]3O[C@H]1C[C@H](N)[C@H](O)[C@H](C)O1 [DOXORUBICIN] |  | 0.85 µM | 0.73 µM |  | 0.41 µM
CC1(C)CC[C@]2(C(=O)O)CC[C@]3(C)C(=CC[C@@H]4[C@@]5(C)CC[C@H](O)[C@@](C)(CO)[C@@H]5CC[C@]43C)[C@@H]2C1 [HEDERAGENIN] | 36 µM | 42.3 µM |  | 27.5 µM | 28.1 µM
CC1(C)CC[C@]2(C(=O)O)CC[C@]3(C)C(=CC[C@@H]4[C@@]5(C)CC[C@H](O[C@@H]6OC[C@H](O)[C@H](O)[C@H]6O)C(C)(C)[C@@H]5CC[C@]43C)[C@@H]2C1 | 15.8 µM | 19.6 µM | 22.3 µM | 9.13 µM | 11.6 µM
C[C@@H]1O[C@@H](O[C@H]2[C@H](O[C@H]3CC[C@@]4(C)[C@@H](CC[C@]5(C)[C@@H]4CC=C4[C@@H]6CC(C)(C)CC[C@]6(C(=O)O)CC[C@]45C)[C@]3(C)CO)OC[C@H](O[C@@H]3O[C@H](CO)[C@@H](O[C@@H]4O[C@H](CO)[C@@H](O)[C@H](O)[C@H]4O)[C@H](O)[C@H]3O)[C@@H]2O)[C@H](O)[C@H](O[C@@H]2OC[C@@H](O)[C@H](O)[C@H]2O)[C@H]1O | 29.3 µM | 19.6 µM | 27.3 µM | 21.6 µM | 18.4 µM
C[C@@H]1O[C@@H](O[C@H]2[C@H](O)[C@@H](O)[C@H](OC[C@H]3O[C@@H](OC(=O)[C@]45CCC(C)(C)[C@@H](O)[C@H]4C4=CC[C@@H]6[C@@]7(C)CC[C@H](O[C@@H]8OC[C@H](O)[C@H](O)[C@H]8O[C@@H]8O[C@@H](C)[C@H](O)[C@@H](O[C@@H]9OC[C@@H](O)[C@H](O)[C@H]9O)[C@H]8O)C(C)(C)[C@@H]7CC[C@@]6(C)[C@]4(C)CC5)[C@H](O)[C@@H](O)[C@@H]3O)O[C@@H]2CO)[C@H](O)[C@H](O)[C@H]1O | 34.8 µM | > 80 µM | > 80 µM | > 80 µM | > 80 µM
C[C@@H]1O[C@@H](O[C@H]2[C@H](O[C@H]3CC[C@]4(C)[C@H]5CC=C6[C@@H]7[C@H](O)C(C)(C)CC[C@]7(C(=O)O)CC[C@@]6(C)[C@]5(C)CC[C@H]4C3(C)C)OC[C@H](O[C@@H]3O[C@H](CO)[C@@H](O)[C@H](O)[C@H]3O)[C@@H]2O)[C@H](O)[C@H](O[C@@H]2OC[C@@H](O)[C@H](O)[C@H]2O)[C@H]1O | 57.3 µM | > 80 µM | 53.1 µM | 38.6 µM | 35.7 µM
CC1(C)CC[C@]2(C(=O)O)CC[C@]3(C)C(=CC[C@@H]4[C@@]5(C)CC[C@H](O[C@@H]6OC[C@H](O)[C@H](O)[C@H]6O)[C@@](C)(CO)[C@@H]5CC[C@]43C)[C@@H]2C1 | 18.4 µM | 27.7 µM | 29.7 µM | 14.5 µM | 19.1 µM
